Molecular target: T1, Kv1.3 potassium channel (Homo sapiens, UniProt P22001)
T1 construct: expressed in transfected cells
Assay: Kv1.3 potassium channel blocker activity, automated whole-cell patch clamp (Patchliner)
Assay type: cell-based
Procedure: This assay is used to evaluate the disclosed compounds' activities as Kv1.3 potassium channel blockers.
CHO-K1 cells stably expressing Kv1.3 were grown in DMEM containing 10% heat-inactivated FBS, 1 mM sodium pyruvate, 2 mM L-glutamine and G418 (500 μg/ml). Cells were grown in culture flasks at 37° C. in a 5% CO2-humidified incubator.
The cells were bathed in an extracellular solution containing 140 mM NaCl, 4 mM KCl, 2 mM CaCl2), 1 mM MgCl2, 5 mM glucose, and 10 mM HEPES; pH adjusted to 7.4 with NaOH; 295-305 mOsm. The internal solution contained 50 mM KCl, 10 mM NaCl, 60 mM KF, 20 mM EGTA, and 10 mM HEPES; pH adjusted to 7.2 with KOH; 285 mOsm. All compounds were dissolved in DMSO at 30 mM. Compound stock solutions were freshly diluted with external solution to concentrations of 30 nM, 100 nM, 300 nM, 1 μM, 3 μM, 10 μM, 30 μM and 100 μM. The highest content of DMSO (0.3%) was present in 100 μM.
The currents were evoked by applying 100 ms depolarizing pulses from −90 mV (holding potential) to +40 mV were applied with 0.1 Hz frequency. Control (compound-free) and compound pulse trains for each compound concentration applied contained 20 pulses.
10-second breaks were used between pulse trains (see Table 2 below).
Whole-cell current recordings and compound application were enabled by means of an automated patch clamp platform Patchliner (Nanion Technologies GmbH). EPC 10 patch clamp amplifier (HEKA Elektronik Dr. Schulze GmbH) along with Patchmaster software (HEKA Elektronik Dr. Schulze GmbH) was used for data acquisition. Data were sampled at 10 kHz without filtering. Passive leak currents were subtracted online using a P/4 procedure (HEKA Elektronik Dr. Schulze GmbH). Increasing compound concentrations were applied consecutively to the same cell without washouts in between. Total compound incubation time before the next pulse train was not longer than 10 seconds. Peak current inhibition was observed during compound equilibration.
AUC and peak values were obtained with Patchmaster (HEKA Elektronik Dr. Schulze GmbH). To determine IC50, the last single pulse in the pulse train corresponding to a given compound concentration was used. Obtained AUC and peak values in the presence of compound were normalized to control values in the absence of compound. Using Origin (OridinLab), IC50 was derived from data fit to Hill equation: Icompound/Icontrol=(100−A)/(1+([compound]/IC50)nH)+A, where IC50 value is the concentration at which current inhibition is half-maximal, [compound] is the applied compound concentration, A is the fraction of current that is not blocked and nH is the Hill coefficient.

[1] = CHO-K1 cells stably expressing Kv1.3, 100 ms pulses from -90 mV to +40 mV, 0.1 Hz
[2] = Kv1.3 potassium channel, whole-cell patch clamp

T1 sequence (P22001 whole entry): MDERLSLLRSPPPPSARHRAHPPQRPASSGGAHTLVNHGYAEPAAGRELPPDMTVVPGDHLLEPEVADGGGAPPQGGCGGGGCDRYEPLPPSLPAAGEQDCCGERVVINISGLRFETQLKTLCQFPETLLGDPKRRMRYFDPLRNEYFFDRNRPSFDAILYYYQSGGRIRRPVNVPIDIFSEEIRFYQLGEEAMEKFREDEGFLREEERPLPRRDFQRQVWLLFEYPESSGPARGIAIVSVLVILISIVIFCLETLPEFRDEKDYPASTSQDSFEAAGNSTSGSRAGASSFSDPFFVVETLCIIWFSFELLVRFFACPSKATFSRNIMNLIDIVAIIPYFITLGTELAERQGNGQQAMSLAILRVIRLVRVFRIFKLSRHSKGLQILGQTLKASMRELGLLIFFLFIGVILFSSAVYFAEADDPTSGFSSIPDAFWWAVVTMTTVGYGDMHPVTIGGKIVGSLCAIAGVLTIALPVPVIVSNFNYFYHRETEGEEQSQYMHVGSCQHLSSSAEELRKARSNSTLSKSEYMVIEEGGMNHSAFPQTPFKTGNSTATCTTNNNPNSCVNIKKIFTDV

SMILES	IC50 [1] [nM]	IC50 [2] [nM]
O=C(CO)N1CC(=O)N2C[C@H](c3c(O)ccc(Cl)c3Cl)CC[C@H]2C1 (relative stereo) [Compound 13, (7S,9aS)-rel-7-(2,3-dichloro-6-hydroxyphenyl)-2-(2-hydroxyacetyl)-hexahydro-1H-pyrido[1,2-a]pyrazin-4-one]	< 1000	–
O=C(CO)N1CC(=O)N2C[C@H](c3c(O)ccc(Cl)c3Cl)CC[C@@H]2C1 (relative stereo) [Compound 26, (7S,9aR)-rel-7-(2,3-dichloro-6-hydroxyphenyl)-2-(2-hydroxyacetyl)-hexahydro-1H-pyrido[1,2-a]pyrazin-4-one]	< 10000	–
O=C1CN(C2CC[C@H](O)[C@@H]2O)C[C@@H]2C[C@H](c3c(O)ccc(Cl)c3Cl)CN12 (relative stereo) [Compound 135, (7R,8aS)-7-(2,3-dichloro-6-hydroxyphenyl)-2-[(2R,3S)-rel-2,3-dihydroxycyclopentyl]-hexahydropyrrolo [1,2-a]pyrazin-4-one]	–	< 1000
O=C1C[C@@H](O)[C@@H](O)[C@@H]2C[C@H](c3c(O)ccc(Cl)c3Cl)CN12 (relative stereo) [Compound 224, (7R,8S)-rel-(2R, 8aS)-2-(2,3-dichloro-6-hydroxyphenyl)-7,8-dihydroxy-hexahydro-1H-indolizin-5-one]	–	< 1000
O=C1[C@H](CO)OC[C@@H]2C[C@H](c3c(O)ccc(Cl)c3Cl)CCN12 (single isomer, unassigned) [Compound 43]	< 1000	–
NC(=O)[C@@H]1CC(=O)N2C[C@@H](c3c(O)ccc(Cl)c3Cl)C[C@H]2C1 (single isomer, unassigned) [Compound 230]	–	< 1000
O=C1[C@@H](O)C[C@@H]2C[C@H](c3c(O)ccc(Cl)c3Cl)CN12 (single isomer, unassigned) [Compound 245]	–	< 1000
N[C@@H]1C[C@@H]2C[C@H](c3c(O)ccc(Cl)c3Cl)CN2C1=O (single isomer, unassigned) [Compound 249]	–	< 1000
CC(C)(O)[C@H]1OC(=O)N2C[C@@H](c3c(O)ccc(Cl)c3Cl)C[C@@H]12 (single isomer, unassigned) [Compound 255]	–	< 1000
C[C@@H]1[C@@H]2C[C@H](c3c(O)ccc(Cl)c3Cl)CN2C(=O)CN1C(=O)CO (single isomer, unassigned; isomer 1) [Compound 87]	–	< 1000
C[C@@H](CO)C(=O)N1CC(=O)N2CC[C@H](c3c(O)ccc(Cl)c3Cl)C[C@@H]2C1 [Compound 3, (8S,9aR)-8-(2,3-dichloro-6-hydroxyphenyl)-2-((S)-3-hydroxy-2-methylpropanoyl)octahydro-4H-pyrido[1,2-a]pyrazin-4-one]	< 1000	–
C[C@H](CO)C(=O)N1CC(=O)N2CC[C@H](c3c(O)ccc(Cl)c3Cl)C[C@@H]2C1 [Compound 20, (8S,9aR)-8-(2,3-dichloro-6-hydroxyphenyl)-2-((R)-3-hydroxy-2-methylpropanoyl)octahydro-4H-pyrido[1,2-a]pyrazin-4-one]	< 1000	–
CN(C)C(=O)N1CC(=O)N2C[C@@H](c3c(O)ccc(Cl)c3Cl)C[C@H]2C1 [Compound 30, (7R,8aS)-7-(2,3-dichloro-6-hydroxyphenyl)-N,N-dimethyl-4-oxohexahydropyrrolo[1,2-a]pyrazine-2(1H)-carboxamide]	< 1000	–
CC(C)(O)C(=O)N1CC(=O)N2CC[C@@H](c3c(O)ccc(Cl)c3Cl)C[C@H]2C1 [Compound 31, (8R,9aS)-8-(2,3-dichloro-6-hydroxyphenyl)-2-(2-hydroxy-2-methylpropanoyl)octahydro-4H-pyrido[1,2-a]pyrazin-4-one]	< 1000	–
O=C1[C@@H](CO)NC[C@H]2C[C@@H](c3c(O)ccc(Cl)c3Cl)CCN12 [Compound 36, (3R,8S,9aR)-8-(2,3-dichloro-6-hydroxyphenyl)-3-(hydroxymethyl)-octahydropyrido[1,2-a]pyrazin-4-one]	< 1000	–
O=C1CNC[C@H]2C[C@@H](c3c(O)ccc(Cl)c3Cl)CCN12 [Compound 39]	< 1000	–
O=C(CO)N1CC(=O)N2CC[C@H](c3c(O)ccc(Cl)c3Cl)C[C@@H]2C1 [Compound 48, (8S,9aR)-8-(2,3-dichloro-6-hydroxyphenyl)-2-(2-hydroxyacetyl)-hexahydro-1H-pyrido[1,2-a]pyrazin-4-one]	< 1000	–
O=C([C@@H](O)CO)N1CC(=O)N2CC[C@H](c3c(O)ccc(Cl)c3Cl)C[C@@H]2C1 [Compound 51, (8S,9aR)-8-(2,3-dichloro-6-hydroxyphenyl)-2-[(2S)-2,3-dihydroxypropanoyl]-hexahydro-1H-pyrido[1,2-a]pyrazin-4-one]	< 1000	–
C[C@@H](O)CC(=O)N1CC(=O)N2C[C@@H](c3c(O)ccc(Cl)c3Cl)C[C@H]2C1 [Compound 53, (7R,8aS)-7-(2,3-dichloro-6-hydroxyphenyl)-2-[(3R)-3-hydroxybutanoyl]-hexahydropyrrolo[1,2-a]pyrazin-4-one]	< 1000	–
CO[C@@H](CO)C(=O)N1CC(=O)N2CC[C@@H](c3c(O)ccc(Cl)c3Cl)C[C@H]2C1 [Compound 56, (8R,9aS)-8-(2,3-dichloro-6-hydroxyphenyl)-2-[(2S)-3-hydroxy-2-methoxypropanoyl]-hexahydro-1H-pyrido[1,2-a]pyrazin-4-one]	< 1000	–
C[C@H]1C(=O)N2C[C@@H](c3c(O)ccc(Cl)c3Cl)C[C@H]2CN1C(=O)CO [Compound 60, (3S,7R,8aS)-7-(2,3-dichloro-6-hydroxyphenyl)-2-(2-hydroxyacetyl)-3-methyl-hexahydropyrrolo[1,2-a]pyrazin-4-one]	< 1000	–

Second part, the molecule after the results:

IC50 [1] [nM]	IC50 [2] [nM]	SMILES
–	< 1000	O=C1C[C@@H](c2cc[nH]n2)C[C@@H]2C[C@H](c3c(O)ccc(Cl)c3Cl)CN12 (single isomer, unassigned) [Compound 213]
–	< 10000	O=C1C[C@H](c2cc[nH]n2)C[C@@H]2C[C@H](c3c(O)ccc(Cl)c3Cl)CN12 (single isomer, unassigned) [Compound 214]
–	< 1000	O=C1CC[C@@H](O)[C@@H]2C[C@H](c3c(O)ccc(Cl)c3Cl)CN12 (single isomer, unassigned) [Compound 227]
–	< 1000	N#C[C@@H]1CC(=O)N2C[C@@H](c3c(O)ccc(Cl)c3Cl)C[C@H]2C1 (single isomer, unassigned) [Compound 228]
–	< 1000	O=C(NCCO)[C@H]1CC(=O)N2C[C@@H](c3c(O)ccc(Cl)c3Cl)C[C@H]2C1 (single isomer, unassigned) [Compound 233]
–	< 1000	O=C1[C@H](O)C[C@@H]2C[C@H](c3c(O)ccc(Cl)c3Cl)CN12 (single isomer, unassigned) [Compound 246]
–	< 10000	C[C@@H]1[C@@H]2C[C@H](c3c(O)ccc(Cl)c3Cl)CCN2C(=O)CN1C(=O)CO (single isomer, unassigned; isomer 1) [Compound 83]
< 1000	–	O=C(CO)N1CC(=O)N2CC[C@H](c3c(O)cc(Cl)c(Cl)c3Cl)C[C@@H]2C1 [Compound 5, (8S,9aR)-2-(2-hydroxyacetyl)-8-(2,3,4-trichloro-6-hydroxyphenyl)-hexahydro-1H-pyrido[1,2-a]pyrazin-4-one]
< 10000	–	O=C1N[C@H](CO)CN2CC[C@@H](c3c(O)ccc(Cl)c3Cl)C[C@@H]12 [Compound 6, (3S,8R,9aS)-8-(2,3-dichloro-6-hydroxyphenyl)-3-(hydroxymethyl)-octahydropyrido[1,2-a]pyrazin-1-one]
< 10000	–	C[C@@H]1C(=O)N2CC[C@@H](c3c(O)ccc(Cl)c3Cl)C[C@H]2CN1C(=O)CO [Compound 12, (3R,8R,9aS)-8-(2,3-dichloro-6-hydroxyphenyl)-2-(2-hydroxyacetyl)-3-methyloctahydro-4H-pyrido[1,2-a]pyrazin-4-one]
< 10000	–	O=C1N[C@H](CO)CN2CC[C@H](c3c(O)ccc(Cl)c3Cl)C[C@H]12 [Compound 19, (3S,8S,9aR)-8-(2,3-dichloro-6-hydroxyphenyl)-3-(hydroxymethyl)-octahydropyrido[1,2-a]pyrazin-1-one]
< 1000	–	O=C(CCO)N1CC(=O)N2CC[C@H](c3c(O)ccc(Cl)c3Cl)C[C@@H]2C1 [Compound 58, (8S,9aR)-8-(2,3-dichloro-6-hydroxyphenyl)-2-(3-hydroxy-propanoyl)octahydro-4H-pyrido[1,2-a]pyrazin-4-one]

— patent US20230049231A1 (priority 2019, published 2023)
